In patent publication US20050084612A1, “Surface coating for microfluidic devices that incorporate a biopolymer resistant moiety” (Caliper Life Sciences, Inc., priority 1999, published 2005):

Biological target: T1, PTP1b (Homo sapiens, UniProt P18031)
T1 sequence (P18031 1-435): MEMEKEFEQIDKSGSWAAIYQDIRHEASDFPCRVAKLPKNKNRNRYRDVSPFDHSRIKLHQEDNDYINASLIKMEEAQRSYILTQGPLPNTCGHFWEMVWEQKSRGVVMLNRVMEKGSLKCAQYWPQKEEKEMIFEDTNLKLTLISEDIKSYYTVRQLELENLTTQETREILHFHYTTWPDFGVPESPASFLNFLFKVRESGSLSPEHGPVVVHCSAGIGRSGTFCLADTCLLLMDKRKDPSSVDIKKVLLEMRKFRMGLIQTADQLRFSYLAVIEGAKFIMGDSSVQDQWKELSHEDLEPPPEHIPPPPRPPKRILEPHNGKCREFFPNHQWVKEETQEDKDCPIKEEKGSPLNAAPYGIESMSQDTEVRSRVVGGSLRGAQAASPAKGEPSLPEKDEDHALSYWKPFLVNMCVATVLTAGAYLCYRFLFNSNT
Experiment: PTP1b/diFMUP Km measurement by substrate titration in microfluidic device
Assay type: biochemical
Conditions: read-out: Km PTP1b/diFMUP; PEI-2 coated device, no NDSB, 50 mM HEPES+10 mM DTT
Description: A 0.1 mg/ml PTP1b solution (12 μl) was placed in well 8. […] The fluorescence signal is detected at the end of the main channel.
The first 5 steps are substrate-only titrations using well 2 and well 3, with buffer flow from well 1. These provide measurements of the substrate background signal. The next 5 steps are the same substrate titration steps, but with enzyme flowing from well 8. The difference between these signals and the substrate-only background signal is product signal. […] The final concentration of the substrate was calculated from the known well concentration and the ratio of currents as programmed in the script. Plotting 1/(product signal per unit time) vs. 1/(substrate concentration) yields the Lineweaver-Burk plot with Km equal to slope divided by the y-intercept.
The final substrate concentration was calculated from Equation 4.

- Km: 3000 nM
SMILES: Cc1cc(=O)oc2c(F)c(OP(=O)(O)O)c(F)cc12 [diFMUP, di-6-a-difluoro-4-methylumbelliferyl phosphate]
